This experiment deals with T1, MPO (purified from human polynuclear leukocytes) (Homo sapiens, UniProt P05164).
T1 construct: purified from human polynuclear leukocytes; purchased Calbiochem/EMD Biosciences; host or cells: human polynuclear leukocytes (natural source)
In words: MPO Amplex Red Activity Assay. The experiment is classed as biochemical. The settings on record: Table 1A, 2 μM H2O2, pH 7.4. A digest of the protocol:
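Potency is given as kinact/KI: kobs values from 600 s progress curves, minus the uninhibited rate, are fit against inhibitor concentration. Reactions use 2 μM H2O2, 30 μM Amplex Red, pH 7.4 phosphate buffer with NaCl, DTPA and 2% DMSO, started with […] human MPO. Readout is resorufin fluorescence, catalase background subtracted.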

T1 sequence (P05164 279-745 limits assumed): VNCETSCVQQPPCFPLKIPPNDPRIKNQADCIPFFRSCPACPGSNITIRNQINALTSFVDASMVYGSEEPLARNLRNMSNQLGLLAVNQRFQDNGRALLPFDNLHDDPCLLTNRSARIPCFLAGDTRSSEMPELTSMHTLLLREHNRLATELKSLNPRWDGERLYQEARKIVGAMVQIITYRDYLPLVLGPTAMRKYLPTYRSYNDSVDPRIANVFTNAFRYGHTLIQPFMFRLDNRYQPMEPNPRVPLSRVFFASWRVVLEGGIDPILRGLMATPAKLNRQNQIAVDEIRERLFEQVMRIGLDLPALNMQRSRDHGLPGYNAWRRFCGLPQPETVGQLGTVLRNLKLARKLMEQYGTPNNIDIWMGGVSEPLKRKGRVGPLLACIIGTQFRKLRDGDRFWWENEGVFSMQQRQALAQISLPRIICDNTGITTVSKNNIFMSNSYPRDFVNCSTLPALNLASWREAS
T1 sequence (P05164 165-273 limits assumed): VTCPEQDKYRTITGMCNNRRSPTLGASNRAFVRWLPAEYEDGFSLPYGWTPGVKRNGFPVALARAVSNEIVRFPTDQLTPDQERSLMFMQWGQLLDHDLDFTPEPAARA

Turning to `COc1ccc(-c2cc(=O)[nH]c(=S)n2CC(=O)N[C@@H]2CCNC2)c(OC)c1` [Example 388, 2-[6-(2,4-dimethoxyphenyl)-4-oxo-2-thioxo-3,4-dihydropyrimidin-1(2H)-yl]-N-[(3R)-pyrrolidin-3-yl]acetamide], the “MPO kinact/Ki” value was 8690 1/s per M. As for `COc1ccc(-c2cc(=O)[nH]c(=S)n2CC(=O)N2CC[C@@H](N)C2)c(OC)c1` [Example 389, 1-{2-[(3R)-3-aminopyrrolidin-1-yl]-2-oxoethyl}-6-(2,4-dimethoxyphenyl)-2-thioxo-2,3-dihydropyrimidin-4(1H)-one], the figure is 4910 1/s per M; as for `COc1ccc(-c2cc(=O)[nH]c(=S)n2CC(=O)N(C)CCN)c(OC)c1` [Example 390, N-(2-aminoethyl)-2-[6-(2,4-dimethoxyphenyl)-4-oxo-2-thioxo-3,4-dihydropyrimidin-1(2H)-yl]-N-methylacetamide], 6250 1/s per M; as for `CNCCNC(=O)Cn1c(-c2ccc(OC)cc2OC)cc(=O)[nH]c1=S` [Example 391, 2-[6-(2,4-dimethoxyphenyl)-4-oxo-2-thioxo-3,4-dihydropyrimidin-1(2H)-yl]-N-[2-(methylamino)ethyl]acetamide], 3480 1/s per M. As for `COc1ccc(-c2cc(=O)[nH]c(=S)n2CC(=O)NCCN(C)C)c(OC)c1` [Example 392, 2-[6-(2,4-dimethoxyphenyl)-4-oxo-2-thioxo-3,4-dihydropyrimidin-1(2H)-yl]-N-[2-(dimethylamino)ethyl]acetamide], the figure is 5830 1/s per M; as for `COc1ccc(-c2cc(=O)[nH]c(=S)n2CC(=O)N[C@H]2CCNC2)c(OC)c1` [Example 393, 2-[6-(2,4-dimethoxyphenyl)-4-oxo-2-thioxo-3,4-dihydropyrimidin-1(2H)-yl]-N-[(3S)-pyrrolidin-3-yl]acetamide], 13600 1/s per M. `COc1ccc(-c2cc(=O)[nH]c(=S)n2CC(=O)N[C@@H](C)CN)c(OC)c1` [Example 394, N-[(2S)-1-aminopropan-2-yl]-2-[6-(2,4-dimethoxyphenyl)-4-oxo-2-thioxo-3,4-dihydropyrimidin-1(2H)-yl]acetamide]: the “MPO kinact/Ki” value is 4020 1/s per M. With `COc1ccc(-c2cc(=O)[nH]c(=S)n2CC(=O)NC[C@@H](C)N)c(OC)c1` [Example 395, N-[(2R)-2-aminopropyl]-2-[6-(2,4-dimethoxyphenyl)-4-oxo-2-thioxo-3,4-dihydropyrimidin-1(2H)-yl]acetamide], the “MPO kinact/Ki” value is given as 6980 1/s per M.

On to `COc1ccc(-c2cc(=O)[nH]c(=S)n2CC(=O)NC[C@H](C)N)c(OC)c1` [Example 396, N-[(2S)-2-aminopropyl]-2-[6-(2,4-dimethoxyphenyl)-4-oxo-2-thioxo-3,4-dihydropyrimidin-1(2H)-yl]acetamide], for which the “MPO kinact/Ki” value was 10900 1/s per M.

Consider `COc1ccc(-c2cc(=O)[nH]c(=S)n2CC(=O)N2CCNCC2)c(OC)c1` [Example 397, 6-(2,4-dimethoxyphenyl)-1-[2-oxo-2-(piperazin-1-yl)ethyl]-2-thioxo-2,3-dihydropyrimidin-4(1H)-one], for which the “MPO kinact/Ki” value was 4050 1/s per M. `COc1ccc(-c2cc(=O)[nH]c(=S)n2CC(=O)N2CC[C@H](N)C2)c(OC)c1` [Example 398, 1-{2-[(3S)-3-aminopyrrolidin-1-yl]-2-oxoethyl}-6-(2,4-dimethoxyphenyl)-2-thioxo-2,3-dihydropyrimidin-4(1H)-one]: the “MPO kinact/Ki” value was 4780 1/s per M.

With `COc1ccc(-c2cc(=O)[nH]c(=S)n2CC(=O)NCCNC(=O)[C@H](C)N)c(OC)c1` [Example 399, N-[2-({[6-(2,4-dimethoxyphenyl)-4-oxo-2-thioxo-3,4-dihydropyrimidin-1(2H)-yl]acetyl}amino)ethyl]-L-alaninamide], the “MPO kinact/Ki” value was 4860 1/s per M. For the compound `CNCCN(C)C(=O)Cn1c(-c2ccc(OC)cc2OC)cc(=O)[nH]c1=S` [Example 400, 2-[6-(2,4-dimethoxyphenyl)-4-oxo-2-thioxo-3,4-dihydropyrimidin-1(2H)-yl]-N-methyl-N-[2-(methylamino)ethyl]acetamide], the “MPO kinact/Ki” value is listed as 2650 1/s per M.

These data come from patent US9399626B2, “2-thiopyrimidinones” (Pfizer Inc., priority 2011, dated 2016).
